By ΔTm is commonly meant the shift of the melting midpoint relative to a reference.

Among the data in ChEMBL document CHEMBL1145498, “A systematic interaction map of validated kinase inhibitors with Ser/Thr kinases” (Proc Natl Acad Sci U S A, 2007) are ΔTm values, retold here.

Test [1] addresses Serine/threonine-protein kinase 26 (Homo sapiens) (UniProt Q9P289).
Test [2] deals with Death-associated protein kinase 3 (Homo sapiens) (UniProt O43293).
For test [3], the target named is Casein kinase I isoform gamma-2 (Homo sapiens) (UniProt P78368).
The target in test [4] is Glycogen synthase kinase-3 beta (Homo sapiens, UniProt P49841).
The target of test [5] is T1, Serine/threonine-protein kinase VRK1 (Homo sapiens) (UniProt Q99986).
T1 sequence (whole entry): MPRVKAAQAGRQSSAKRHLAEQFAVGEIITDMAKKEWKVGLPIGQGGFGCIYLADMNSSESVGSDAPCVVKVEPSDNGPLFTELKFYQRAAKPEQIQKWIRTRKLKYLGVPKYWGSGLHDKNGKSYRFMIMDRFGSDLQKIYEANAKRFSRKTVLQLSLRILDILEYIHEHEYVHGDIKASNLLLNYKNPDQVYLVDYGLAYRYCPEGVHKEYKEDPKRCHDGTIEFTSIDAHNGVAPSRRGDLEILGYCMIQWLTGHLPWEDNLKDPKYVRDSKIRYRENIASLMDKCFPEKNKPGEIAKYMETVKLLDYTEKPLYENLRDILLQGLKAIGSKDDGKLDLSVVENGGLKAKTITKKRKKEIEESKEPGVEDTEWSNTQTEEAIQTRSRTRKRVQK

Test [6] has as its target T2, Dual specificity mitogen-activated protein kinase kinase 6 (Homo sapiens) (UniProt P52564).
T2 sequence (whole entry): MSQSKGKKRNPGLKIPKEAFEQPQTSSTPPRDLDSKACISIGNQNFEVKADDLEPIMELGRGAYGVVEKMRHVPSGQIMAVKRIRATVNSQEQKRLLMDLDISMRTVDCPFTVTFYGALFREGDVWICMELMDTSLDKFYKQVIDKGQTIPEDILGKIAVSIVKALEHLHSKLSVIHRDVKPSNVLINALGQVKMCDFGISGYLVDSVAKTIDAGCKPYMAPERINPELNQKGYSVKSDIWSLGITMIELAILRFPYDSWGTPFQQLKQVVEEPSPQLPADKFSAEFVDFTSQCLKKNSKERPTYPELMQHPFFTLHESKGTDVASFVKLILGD

Test [7] concerns the target cAMP-dependent protein kinase catalytic subunit alpha (Homo sapiens) (UniProt P17612).
Test [8] deals with Mitogen-activated protein kinase 6 (Homo sapiens) (UniProt Q16659).
The target of test [9] is Serine/threonine-protein kinase pim-3 (Homo sapiens) (UniProt Q86V86).
Test [10] addresses T3, Mitogen-activated protein kinase kinase kinase 5 (Homo sapiens) (UniProt Q99683).
T3 sequence (whole entry): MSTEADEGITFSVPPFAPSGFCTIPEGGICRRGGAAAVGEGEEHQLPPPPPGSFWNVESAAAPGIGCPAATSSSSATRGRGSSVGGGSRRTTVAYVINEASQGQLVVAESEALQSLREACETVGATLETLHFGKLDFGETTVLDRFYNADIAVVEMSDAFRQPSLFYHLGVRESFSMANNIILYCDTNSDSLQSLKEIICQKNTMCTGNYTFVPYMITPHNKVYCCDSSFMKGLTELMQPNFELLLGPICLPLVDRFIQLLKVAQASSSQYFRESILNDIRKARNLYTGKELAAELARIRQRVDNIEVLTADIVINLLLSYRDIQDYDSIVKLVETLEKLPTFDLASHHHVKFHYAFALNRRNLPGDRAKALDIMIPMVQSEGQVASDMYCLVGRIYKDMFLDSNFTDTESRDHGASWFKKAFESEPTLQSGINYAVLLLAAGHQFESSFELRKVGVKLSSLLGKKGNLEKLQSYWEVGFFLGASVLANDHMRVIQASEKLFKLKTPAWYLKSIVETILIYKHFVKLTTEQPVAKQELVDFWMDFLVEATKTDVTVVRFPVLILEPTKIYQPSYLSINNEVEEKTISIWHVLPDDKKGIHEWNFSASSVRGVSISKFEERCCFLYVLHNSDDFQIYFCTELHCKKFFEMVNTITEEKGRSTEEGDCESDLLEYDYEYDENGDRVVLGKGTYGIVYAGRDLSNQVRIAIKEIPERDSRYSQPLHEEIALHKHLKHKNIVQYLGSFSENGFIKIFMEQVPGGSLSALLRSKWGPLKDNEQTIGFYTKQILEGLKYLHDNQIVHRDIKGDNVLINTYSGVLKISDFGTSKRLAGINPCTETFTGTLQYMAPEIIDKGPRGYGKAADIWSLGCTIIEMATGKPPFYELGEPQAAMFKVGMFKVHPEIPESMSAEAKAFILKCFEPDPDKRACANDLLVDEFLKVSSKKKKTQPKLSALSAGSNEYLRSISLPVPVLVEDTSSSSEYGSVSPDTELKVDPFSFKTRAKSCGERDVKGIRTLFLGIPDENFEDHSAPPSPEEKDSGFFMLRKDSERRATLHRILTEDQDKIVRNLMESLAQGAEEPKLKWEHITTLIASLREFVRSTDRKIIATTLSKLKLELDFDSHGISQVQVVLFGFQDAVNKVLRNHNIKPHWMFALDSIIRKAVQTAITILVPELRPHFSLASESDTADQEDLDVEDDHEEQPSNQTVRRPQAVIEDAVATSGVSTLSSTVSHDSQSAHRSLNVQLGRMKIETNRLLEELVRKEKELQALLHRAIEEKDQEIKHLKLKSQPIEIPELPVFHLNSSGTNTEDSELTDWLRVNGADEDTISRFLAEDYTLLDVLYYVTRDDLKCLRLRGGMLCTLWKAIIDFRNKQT

Test [11] addresses Ribosomal protein S6 kinase alpha-3 (Homo sapiens) (UniProt P51812).
Test [12] deals with Cyclin-dependent kinase 6 (Homo sapiens) (UniProt Q00534).
In test [13] the target is Tyrosine-protein kinase JAK1 (Homo sapiens) (UniProt P23458).
Test [14] addresses Calcium/calmodulin-dependent protein kinase type II subunit beta (Homo sapiens) (UniProt Q13554).
The target in test [15] is Serine/threonine-protein kinase PAK 4 (Homo sapiens) (UniProt O96013).

Chain of Death-associated protein kinase 3 (Homo sapiens) (O43293 whole entry, looked up, canonical isoform): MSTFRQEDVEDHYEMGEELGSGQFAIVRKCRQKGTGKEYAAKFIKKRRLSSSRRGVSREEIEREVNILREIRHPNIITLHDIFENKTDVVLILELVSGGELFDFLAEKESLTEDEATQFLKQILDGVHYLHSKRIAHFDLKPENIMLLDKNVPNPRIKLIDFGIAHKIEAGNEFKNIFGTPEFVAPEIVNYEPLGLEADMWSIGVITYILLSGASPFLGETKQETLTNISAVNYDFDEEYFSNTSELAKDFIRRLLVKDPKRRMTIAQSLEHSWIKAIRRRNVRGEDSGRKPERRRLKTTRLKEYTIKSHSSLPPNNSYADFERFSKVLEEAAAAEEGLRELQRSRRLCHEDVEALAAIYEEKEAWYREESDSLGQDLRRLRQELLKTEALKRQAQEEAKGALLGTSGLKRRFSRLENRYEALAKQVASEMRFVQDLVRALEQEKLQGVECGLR
Chain of Serine/threonine-protein kinase 26 (Homo sapiens) (Q9P289 2-416 limits assumed): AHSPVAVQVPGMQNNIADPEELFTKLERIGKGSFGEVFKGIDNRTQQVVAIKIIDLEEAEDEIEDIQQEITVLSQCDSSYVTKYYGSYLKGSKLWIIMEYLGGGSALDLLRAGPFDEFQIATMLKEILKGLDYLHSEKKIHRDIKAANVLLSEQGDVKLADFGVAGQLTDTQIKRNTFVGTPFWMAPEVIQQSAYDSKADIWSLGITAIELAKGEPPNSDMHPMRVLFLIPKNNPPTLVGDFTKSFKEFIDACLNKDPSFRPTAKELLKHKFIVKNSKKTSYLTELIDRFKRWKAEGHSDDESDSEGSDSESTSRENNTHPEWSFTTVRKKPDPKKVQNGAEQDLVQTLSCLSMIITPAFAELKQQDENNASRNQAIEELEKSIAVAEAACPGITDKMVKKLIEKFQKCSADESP
Chain of Mitogen-activated protein kinase 6 (Homo sapiens) (Q16659 whole entry): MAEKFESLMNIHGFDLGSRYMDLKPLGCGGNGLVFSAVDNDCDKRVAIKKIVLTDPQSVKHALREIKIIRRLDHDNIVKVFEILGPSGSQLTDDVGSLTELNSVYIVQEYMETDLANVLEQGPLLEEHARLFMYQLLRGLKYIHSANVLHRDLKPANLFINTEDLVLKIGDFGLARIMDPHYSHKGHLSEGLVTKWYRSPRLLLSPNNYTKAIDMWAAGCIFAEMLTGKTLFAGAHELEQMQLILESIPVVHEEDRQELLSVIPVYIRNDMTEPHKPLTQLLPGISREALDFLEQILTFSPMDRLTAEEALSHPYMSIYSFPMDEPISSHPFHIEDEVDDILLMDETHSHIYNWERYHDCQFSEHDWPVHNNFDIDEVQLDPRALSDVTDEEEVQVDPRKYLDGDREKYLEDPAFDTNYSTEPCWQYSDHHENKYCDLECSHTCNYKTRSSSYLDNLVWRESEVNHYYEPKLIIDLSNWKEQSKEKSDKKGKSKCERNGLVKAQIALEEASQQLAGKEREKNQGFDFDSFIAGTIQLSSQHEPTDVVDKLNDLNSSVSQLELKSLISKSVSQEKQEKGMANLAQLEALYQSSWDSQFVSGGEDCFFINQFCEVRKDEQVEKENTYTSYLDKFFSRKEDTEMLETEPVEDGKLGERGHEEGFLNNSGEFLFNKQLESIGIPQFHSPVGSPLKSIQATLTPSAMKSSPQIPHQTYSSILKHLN
Chain of Calcium/calmodulin-dependent protein kinase type II subunit beta (Homo sapiens) (Q13554 whole entry): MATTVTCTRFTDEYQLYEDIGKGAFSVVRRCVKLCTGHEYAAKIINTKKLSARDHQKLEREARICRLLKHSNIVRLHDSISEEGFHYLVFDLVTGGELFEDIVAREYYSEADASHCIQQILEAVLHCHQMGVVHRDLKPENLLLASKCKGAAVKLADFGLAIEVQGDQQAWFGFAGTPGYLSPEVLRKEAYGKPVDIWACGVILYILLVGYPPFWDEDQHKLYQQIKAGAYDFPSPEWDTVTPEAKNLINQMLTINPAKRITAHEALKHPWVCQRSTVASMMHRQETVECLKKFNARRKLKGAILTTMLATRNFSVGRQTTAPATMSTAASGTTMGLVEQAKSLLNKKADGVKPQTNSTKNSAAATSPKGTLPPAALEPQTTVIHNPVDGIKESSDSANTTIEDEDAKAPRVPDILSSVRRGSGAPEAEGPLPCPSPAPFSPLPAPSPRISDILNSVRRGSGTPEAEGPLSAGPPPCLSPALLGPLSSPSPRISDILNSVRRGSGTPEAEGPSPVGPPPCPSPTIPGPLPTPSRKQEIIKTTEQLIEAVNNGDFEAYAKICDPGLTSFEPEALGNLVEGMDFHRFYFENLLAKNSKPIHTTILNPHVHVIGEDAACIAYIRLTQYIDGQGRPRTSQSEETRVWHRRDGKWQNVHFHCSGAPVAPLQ
Chain of Glycogen synthase kinase-3 beta (P49841 whole entry, looked up): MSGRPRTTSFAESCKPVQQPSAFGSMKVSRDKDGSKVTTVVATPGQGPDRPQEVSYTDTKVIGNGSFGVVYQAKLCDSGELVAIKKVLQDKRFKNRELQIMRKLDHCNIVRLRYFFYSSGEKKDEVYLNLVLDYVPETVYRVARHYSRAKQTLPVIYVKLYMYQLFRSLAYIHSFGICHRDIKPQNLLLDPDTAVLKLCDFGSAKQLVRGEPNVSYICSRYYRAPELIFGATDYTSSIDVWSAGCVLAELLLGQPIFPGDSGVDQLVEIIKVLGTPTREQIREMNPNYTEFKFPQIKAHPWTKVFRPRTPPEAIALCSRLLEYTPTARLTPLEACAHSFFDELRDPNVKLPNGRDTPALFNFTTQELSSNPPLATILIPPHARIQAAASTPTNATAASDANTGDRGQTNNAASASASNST
Chain of Tyrosine-protein kinase JAK1 (Homo sapiens) (P23458 whole entry): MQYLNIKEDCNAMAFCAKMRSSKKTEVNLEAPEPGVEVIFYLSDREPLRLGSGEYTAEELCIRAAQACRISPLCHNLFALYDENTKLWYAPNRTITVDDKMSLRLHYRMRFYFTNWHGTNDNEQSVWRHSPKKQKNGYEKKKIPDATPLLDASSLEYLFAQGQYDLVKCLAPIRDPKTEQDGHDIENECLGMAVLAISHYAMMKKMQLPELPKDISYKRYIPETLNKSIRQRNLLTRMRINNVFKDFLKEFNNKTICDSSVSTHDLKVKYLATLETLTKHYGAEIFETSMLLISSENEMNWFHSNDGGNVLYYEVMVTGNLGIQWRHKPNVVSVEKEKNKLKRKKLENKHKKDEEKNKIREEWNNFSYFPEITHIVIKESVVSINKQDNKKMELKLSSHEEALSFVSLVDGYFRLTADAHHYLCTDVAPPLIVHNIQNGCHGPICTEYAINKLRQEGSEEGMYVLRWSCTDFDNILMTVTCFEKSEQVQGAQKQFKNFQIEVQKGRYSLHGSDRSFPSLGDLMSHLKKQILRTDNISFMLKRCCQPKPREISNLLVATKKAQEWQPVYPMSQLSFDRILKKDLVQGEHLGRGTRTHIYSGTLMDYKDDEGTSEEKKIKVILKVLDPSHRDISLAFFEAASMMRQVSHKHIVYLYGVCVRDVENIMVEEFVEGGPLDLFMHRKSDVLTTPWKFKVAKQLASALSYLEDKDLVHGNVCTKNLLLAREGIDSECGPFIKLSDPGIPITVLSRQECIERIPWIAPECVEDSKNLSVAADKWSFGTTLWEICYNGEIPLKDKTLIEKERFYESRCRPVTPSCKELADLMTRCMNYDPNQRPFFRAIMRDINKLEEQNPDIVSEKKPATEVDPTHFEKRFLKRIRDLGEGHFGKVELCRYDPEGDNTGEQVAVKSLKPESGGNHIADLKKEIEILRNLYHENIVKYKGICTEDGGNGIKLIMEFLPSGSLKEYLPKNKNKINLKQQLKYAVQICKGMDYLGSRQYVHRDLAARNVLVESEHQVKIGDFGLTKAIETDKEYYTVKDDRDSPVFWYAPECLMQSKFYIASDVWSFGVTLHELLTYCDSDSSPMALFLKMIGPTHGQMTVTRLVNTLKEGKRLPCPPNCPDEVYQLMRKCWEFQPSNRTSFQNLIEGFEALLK
Chain of Casein kinase I isoform gamma-2 (Homo sapiens) (P78368 whole entry, looked up, canonical isoform): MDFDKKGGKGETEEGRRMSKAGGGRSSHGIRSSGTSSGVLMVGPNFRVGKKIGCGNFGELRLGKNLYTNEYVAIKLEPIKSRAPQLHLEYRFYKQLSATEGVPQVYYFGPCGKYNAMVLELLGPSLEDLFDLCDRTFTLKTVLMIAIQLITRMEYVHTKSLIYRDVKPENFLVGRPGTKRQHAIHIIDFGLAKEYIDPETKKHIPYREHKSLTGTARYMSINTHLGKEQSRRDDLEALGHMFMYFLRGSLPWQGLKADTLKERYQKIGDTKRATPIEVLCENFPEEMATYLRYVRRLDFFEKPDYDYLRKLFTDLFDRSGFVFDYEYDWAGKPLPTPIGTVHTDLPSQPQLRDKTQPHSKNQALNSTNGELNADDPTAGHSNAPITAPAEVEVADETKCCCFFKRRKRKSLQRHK
Chain of Cyclin-dependent kinase 6 (Homo sapiens) (Q00534 whole entry): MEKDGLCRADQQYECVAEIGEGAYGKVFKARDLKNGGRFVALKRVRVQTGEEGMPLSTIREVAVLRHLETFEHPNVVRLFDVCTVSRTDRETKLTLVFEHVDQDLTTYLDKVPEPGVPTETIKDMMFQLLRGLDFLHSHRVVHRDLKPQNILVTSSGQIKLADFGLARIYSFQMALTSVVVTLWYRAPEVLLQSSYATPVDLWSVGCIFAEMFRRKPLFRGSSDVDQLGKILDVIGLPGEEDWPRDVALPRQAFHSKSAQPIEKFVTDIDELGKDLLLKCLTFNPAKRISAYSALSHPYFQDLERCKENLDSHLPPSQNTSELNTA

On to `Nc1n[nH]c2nc3ccccc3nc12` [QUINOXALINE1], for which the shift in melting temperature (ΔTm) in [1] is 0.7 °C; in test [2] it was 1 °C; in test [3] it was 0.4 °C; in [4] it was 2.2 °C; in [5], 0.2 °C; in test [6], 0.3 °C. Also, the shift in melting temperature (ΔTm) amounted to 0.6 °C in test [7]; 0.4 °C in test [8]; 1.3 °C in test [9]; 2.6 °C in [10]; 0.9 °C in test [11]; 0.6 °C in test [12]. Further, the ΔTm in test [13] was 2.2 °C; in test [14] it was 0.3 °C; in [15], -0.3 °C.
Take `O=C1NC(=O)c2c1c1c3ccccc3n3c1c1c2c2ccccc2n1C1CCC3O1`: the thermal shift (ΔTm) is 1.5 °C in test [1]; -0.5 °C in test [2]; 0.7 °C in [3]; -0.2 °C in test [4]; -0.1 °C in test [5]; -0.2 °C in test [6]. The ΔTm in test [7] is 0.3 °C; in test [8], 0.5 °C; in test [9], 7.3 °C; in test [10], 3.9 °C; in [11], -0.4 °C; in test [12], -0.3 °C. The shift in melting temperature (ΔTm) in test [13] is -0.2 °C; in test [14], 1.2 °C; in test [15] it was 2.8 °C.
For `O=C1Nc2ccc(S(=O)(=O)O)cc2/C1=C1/Nc2ccccc2/C1=N\O`, the ΔTm in [1] was 1.2 °C; in test [2] it was 6.4 °C; in [3], 2.5 °C; in test [4] it was 8.8 °C; in test [5], 0 °C; in [6] it was 3.5 °C. For the same molecule, the ΔTm in [7] came out at 1.2 °C; in [8] it was 1.1 °C; in test [9], 5.1 °C; in test [10], 3.8 °C; in test [11], 6.1 °C; in test [12], 2.9 °C. The shift in melting temperature (ΔTm) in test [13] came to 4.3 °C; in [14], 1.8 °C; in test [15], 2.7 °C.
For `O=C1c2ccccc2-[n+]2ccc3c([nH]c4ccccc43)c21` [FASCAPLYSIN CHLORIDE], the ΔTm was -0.8 °C in [1]; -0.5 °C in test [2]; -0.3 °C in test [3]; 0.1 °C in test [4]; -1.2 °C in test [5]; -0.8 °C in test [6]. The ΔTm is 0.6 °C in test [7]; -1.9 °C in test [8]; 0 °C in test [9]; -2.6 °C in test [10]; 0.7 °C in [11]; 0.2 °C in [12]. Besides, the shift in melting temperature (ΔTm) in test [13] was -1.5 °C; in test [14], -2 °C; in test [15], -0.6 °C.
For `CSc1nc(-c2ccc(F)cc2)c(-c2ccnc(NC(C)c3ccccc3)c2)[nH]1` (racemic), the thermal shift (ΔTm) in test [1] amounted to 0.7 °C; in test [2], 2.4 °C; in [3] it was 3.4 °C; in test [4] it was 0 °C; in test [5], 0.9 °C; in test [6], 0.5 °C. Further, the thermal shift (ΔTm) was -0.7 °C in test [7]; 0.4 °C in test [8]; -0.5 °C in test [9]; 0.4 °C in test [10]; 0.2 °C in test [11]; 0 °C in [12]. For the same molecule, the ΔTm in [13] came to 0.9 °C; in test [14], 0 °C; in test [15], 0.2 °C.
For `NS(=O)(=O)c1ccc(Nc2nc(OCC3CCCCC3)c3nc[nH]c3n2)cc1`, the ΔTm in test [1] amounted to 2.9 °C; in test [2], 0.8 °C; in [3], 2.5 °C; in test [4] it was 4.3 °C; in test [5], 1.1 °C; in test [6] it was 2 °C. Further, the ΔTm is -0.1 °C in test [7]; 1 °C in test [8]; 1.3 °C in [9]; 2.4 °C in [10]; 1.4 °C in test [11]; 4.9 °C in test [12]. Also, the ΔTm in test [13] was 9.5 °C; in test [14] it was 0.6 °C; in [15], 3.8 °C.
As to `COc1cccc(-c2cc(=O)c3ccccc3o2)c1N`, the ΔTm in test [1] is -0.1 °C; in test [2] it was -0.5 °C; in test [3], 0.5 °C; in test [4], 0.1 °C; in test [5], 0.2 °C; in [6] it was -0.1 °C. For the same molecule, the ΔTm in test [7] was 0.3 °C; in [8] it was 0.3 °C; in test [9], 0.7 °C; in [10], -0.1 °C; in test [11], -0.2 °C; in test [12], 0.1 °C. The shift in melting temperature (ΔTm) in test [13] was 1 °C; in test [14], 0 °C; in [15] it was 0.5 °C.
`COc1ccc(S(=O)(=O)N(CCO)c2ccccc2CN(C)C/C=C/c2ccc(Cl)cc2)cc1`: the ΔTm in test [1] amounted to 0.1 °C; in [2] it was 0.2 °C; in [3] it was 0.3 °C; in test [4], 0 °C; in test [5], 0 °C; in test [6], 0.4 °C. The thermal shift (ΔTm) in test [7] was -4.1 °C; in [8], -0.5 °C; in test [9], 0.5 °C; in test [10], -0.1 °C; in test [11] it was 0.7 °C; in test [12], -0.3 °C. The ΔTm in test [13] was -0.5 °C; in test [14], -1.6 °C; in [15], -0.1 °C.
With `Cl.Cn1cc(C2=C(c3ccc4cc5n(c4c3)CCC(CN)C5)C(=O)NC2=O)c2ccccc21` (stereo not given), the ΔTm in [1] is 1.2 °C; in test [2], 0.7 °C; in test [3], 0.4 °C; in test [4], 6.7 °C; in test [5], 0.8 °C; in [6], 1.1 °C. Also, the shift in melting temperature (ΔTm) in test [7] stood at 1.5 °C; in test [8], 0.7 °C; in test [9], 4.7 °C; in [10] it was 0 °C; in test [11], 0.1 °C; in [12], 1 °C. The ΔTm was -2.8 °C in [13], 1.2 °C in [14] and 1.6 °C in test [15].
